From PubChem BioAssay AID2305 (GlaxoSmithKline (GSK), 2010)

Tested on: P. falciparum 3D7 growth, pLDH absorbance
Experiment: blood-stage malaria parasite growth potency – strain 3D7, dose response (AID 2305)

`CN1CCN(c2ccc(Cl)cc2NC(=O)C2COc3ccccc3O2)CC1` (stereo not given) and `COc1ccc(-c2cccc(NC(=O)c3cccc(Cl)c3)c2)cc1CN1CCCC1` are within 1.5-fold of each other in IC50: 0.81 µM for the first, 0.73 µM for the second.

Going from `COc1cc2nc(N3CCC(c4ccccc4)CC3)nc(NCc3ccc(=O)[nH]c3)c2cc1OC` to `COc1cc2nc(NCCCO)nc(Nc3ccc(Oc4ccccc4)cc3)c2cc1OC`, the IC50 falls from 0.75 µM to 0.14 µM (5.4-fold). The second is the more potent here.

`CC(C)c1ccc(CN2CCC(NC(=O)c3ccc(-c4cccc(Cl)c4)s3)CC2)cc1` and `COc1cccc(CNC(=O)c2cccc(-c3ccc(CN4CCC(N5CCCC5)CC4)cc3)n2)c1` are within 1.5-fold of each other in IC50: 1.43 µM for the first, 1.79 µM for the second.

Compared with `CN(c1ccc(NC(=O)Nc2cccc(Cl)c2)cc1)c1ccnc(N)n1`, `CN(C)CCCNc1nccc(N(C)c2ccc(NC(=O)Nc3cc(C(F)(F)F)ccc3F)cc2)n1` is 1.6-fold higher in IC50: 0.63 µM for the first, 0.98 µM for the second. The first is the more potent here.

`COc1ccc(Nc2nccc(N3CCC(NC(=O)c4cc5ccccc5s4)C3)n2)cc1` (stereo not given) and `Cc1cc(N2CCCC2)nc(Nc2ccc(NC(=O)c3ccco3)cc2)n1` are within 1.5-fold of each other in IC50: 0.76 µM for the first, 0.84 µM for the second.

`O=C(NC1CCN(Cc2ccccc2O)C1)c1ccc(Cl)c(Cl)c1` (stereo not given) and `CN1CCc2cc(I)c(O)cc2C1Cc1ccccc1Cl` (stereo not given) are within 1.5-fold of each other in IC50: 0.89 µM for the first, 0.79 µM for the second.

`COc1ccc2ncc(F)c(NC(=O)C3CCC(NCc4cc5cc(F)cc(F)c5[nH]4)CC3)c2n1` (stereo not given) and `COc1ccc2nccc([C@@H](O)CN3CCC(NCc4cc5cccc(OC)c5o4)CC3)c2c1` are within 1.5-fold of each other in IC50: 1.09 µM for the first, 0.79 µM for the second.

Going from `O=C(Nc1cccc(CN2CCN(C(=O)c3ccccc3)CC2)c1)c1ccco1` to `Cc1cccc(Cn2nc(-c3ccccc3)c(N3CCCCC3)cc2=O)c1`, the IC50 falls from 0.89 µM to 0.46 µM (1.9-fold).

`CCN1CCN(CCCCNc2c3ccccc3nc3ccccc23)CC1` and `COc1ccc2ccccc2c1CCCCN1CCN(CC(c2ccc(F)cc2)N2CCC(N3CCCC3)CC2)CC1` (stereo not given) are within 1.5-fold of each other in IC50: 0.86 µM for the first, 0.62 µM for the second.

`Cc1ccc(C(C)C)c(Oc2cnc(NC(CO)c3ccccc3)nc2N)c1` (stereo not given) and `Cc1cc(NCCC(=O)NCCOc2ccccc2)nc(Nc2ccccc2)n1` are within 1.5-fold of each other in IC50: 0.96 µM for the first, 1.06 µM for the second.

`Nc1nc(N)c(-c2ccccc2)c(=O)[nH]1` and `CC(=O)c1ccc(-c2ccccc2)s1` are within 1.5-fold of each other in IC50: 1 µM for the first, 1.08 µM for the second.

Going from `N#Cc1ccc2c(c1)CCN(CCC1CCC(NC(=O)c3cc4cccc([N+](=O)[O-])c4[nH]3)CC1)C2` (stereo not given) to `O=C(/C=C/c1c(Cl)cccc1Cl)NC1CCC(CN2CCC(c3c[nH]c4ccncc34)CC2)CC1` (stereo not given), the IC50 falls from 0.68 µM to 0.16 µM (4.2-fold).

`Cn1c(Nc2nnc(C3CC3)s2)nc2cc(Nc3ccnc(Nc4cccc(CS(C)(=O)=O)c4)n3)ccc21` and `Cc1ccc(Nc2nc3cc(N(C)c4ccnc(Nc5cccc(CS(C)(=O)=O)c5)n4)ccc3o2)cc1` are within 1.5-fold of each other in IC50: 0.68 µM for the first, 0.97 µM for the second.

`CC(Cc1ccc(OCCN2CCN(c3ccc(Cl)cc3)CC2)cc1)NCC(O)c1cccc(C(F)(F)F)c1` (stereo not given) and `CC(C)N1CCC(N(Cc2ccc(-c3ccc(C(F)(F)F)cc3)cc2)C(=O)Cn2c(CCc3cccc(F)c3F)cc(=O)c3c2CCC3)CC1` are within 1.5-fold of each other in IC50: 0.81 µM for the first, 0.62 µM for the second.

`O=C(Nc1ccc2ccccc2n1)c1ccccc1-c1ccccc1` and `O=c1cc(NCCCN(Cc2ccccc2)Cc2ccccc2)[nH]c2ccccc12` are within 1.5-fold of each other in IC50: 0.44 µM for the first, 0.58 µM for the second.

First: O=[N+]([O-])c1ccc(Nc2nc(NN=Cc3cc(Cl)cc(Cl)c3O)nc(Nc3ccccc3)n2)cc1
Second: CC(C)NCc1cccc(-c2ccc(NC(=O)c3cccc(C#N)c3)cc2)c1
The IC50 of the first is 2.1-fold higher: 0.67 µM for the first, 0.32 µM for the second. The second is the more potent here.

`Cc1cc(Nc2ccc(C)c(C)c2)n2nc(C)nc2n1` and `Cc1cc(NS(=O)(=O)c2cccc(C(C)N3CCC(N4CCCC4)CC3)c2)ccc1C(C)C` (stereo not given) are within 1.5-fold of each other in IC50: 0.6 µM for the first, 0.82 µM for the second.

`CCCn1c(Sc2ccc(C#N)c([N+](=O)[O-])c2)nnc1-c1ccc(OC)cc1` and `COc1ccc(CNC(=O)Nc2cc3cc(-c4ccc(CN(C)C)cc4)ccc3n3c(C)nnc23)cc1` are within 1.5-fold of each other in IC50: 0.86 µM for the first, 0.85 µM for the second.

`Cc1noc(-c2ccc(O)cc2O)c1-c1ccc2c(c1)OCCCO2` and `CCOC(=O)c1[nH]c(-c2ccc(Cl)cc2)nc1NC(=S)NCCCN1CCOCC1` are within 1.5-fold of each other in IC50: 0.89 µM for the first, 0.87 µM for the second.

First: CCOC(=O)NCCSC(C)(C)[C@H](NC(=O)[C@H](Cc1cc2ccccc2s1)[C@H](CC)N(O)C=O)C(=O)Nc1nccs1
Second: CCC(C)CN1CCC(N(C)c2cc(NC(=O)c3cccc(C)c3)ccn2)CC1 (stereo not given)
The IC50 of the first is 3.1-fold lower: 0.3 µM for the first, 0.94 µM for the second.

`COc1cc(-c2cc3cc(Cl)c(Cl)cc3[nH]2)ccc1C(=O)NCCC1CCCN1C` (stereo not given) and `O=C(/C=C/c1ccc(Cl)c(Cl)c1)NCCCCCCN1CCCN(C(=O)Nc2ccc(Cl)c(Cl)c2)CC1` are within 1.5-fold of each other in IC50: 0.97 µM for the first, 0.67 µM for the second.

First: C#CC(C)(CO)N1CCCC1 (stereo not given)
Second: COc1ccc(CNCc2ccc(F)cc2)cc1-c1ccc(S(=O)(=O)NCCN2CCCC2)cc1
The IC50 of the first is 2.7-fold lower: 0.38 µM for the first, 1.04 µM for the second.

Compared with `CN(Cc1ccc(NC(=O)CCC2CCN(C(=O)/C=C/c3ccc(Cl)c(Cl)c3)CC2)cc1)C1CCOCC1`, `CC(=O)C1(c2ccccc2)CCN(CCC2(c3ccc(Cl)c(Cl)c3)CN(C(=O)C3CCCCC3)CCO2)CC1` (stereo not given) is 5.6-fold lower in IC50: 1.73 µM for the first, 0.31 µM for the second.

Going from `CC(C)Cc1cn(-c2nc(-c3nc4ccccc4[nH]3)cs2)c2ccncc12` to `Nc1cc(C=Cc2ccc([N+](=O)[O-])s2)nc2ccccc12`, the IC50 rises from 0.09 µM to 0.76 µM (8.4-fold). The first is the more potent here.

`CCNCCCC(C)Nc1ccnc2cc(Cl)ccc12` (stereo not given) and `CCCCCCNC(=O)C(N)CCCC(N)C(=O)NCCCCCC` (stereo not given) are within 1.5-fold of each other in IC50: 0.2 µM for the first, 0.16 µM for the second.
